Species on record: Rattus norvegicus
Assay: DrugMatrix - Regimen: Daily Repeat
Format: toxicity, organism-based, Sprague-Dawley
Parameters: regimen Daily Repeat, gender Male, age 6-8 weeks
Conditions: in vivo, po, route oral GAVAGE, vehicle 100 % WATER; for ABSOLUTE BASOPHIL / ABSOLUTE EOSINOPHIL / ABSOLUTE LYMPHOCYTE / ABSOLUTE MONOCYTE / ABSOLUTE SEGMENTED NEUTROPHIL / BASOPHIL / EOSINOPHIL / ERYTHROCYTE COUNT / HEMATOCRIT / HEMOGLOBIN / LEUKOCYTE COUNT / LYMPHOCYTE / MEAN CORPUSCULAR HEMOGLOBIN / MEAN CORPUSCULAR HEMOGLOBIN CONCENTRATION / MEAN CORPUSCULAR VOLUME / MONOCYTE / NEUTROPHIL / NUCLEATED RED BLOOD CELLS / PLATELET COUNT: tissue Blood; for ALANINE AMINOTRANSFERASE / ALBUMIN / ALKALINE PHOSPHATASE / ASPARTATE AMINOTRANSFERASE / BLOOD UREA NITROGEN / CARBON DIOXIDE / CHLORIDE / CHOLESTEROL / CREATINE PHOSPHOKINASE / CREATININE / GLUCOSE / LACTATE DEHYDROGENASE / LIPASE / PHOSPHORUS / POTASSIUM / SODIUM / TOTAL BILIRUBIN / TOTAL PROTEIN / URIC ACID: tissue Plasma
[1] = 0 mg/kg, 72 h, dose level Control, time 3 day
[2] = 0 mg/kg, 120 h, dose level Control, time 5 day
[3] = 100 mg/kg, 72 h, dose level Low, time 3 day
[4] = 100 mg/kg, 120 h, dose level Low, time 5 day

C[C@](N)(Cc1ccc(O)c(O)c1)C(=O)O [METHYLDOPA]
ABSOLUTE BASOPHIL [1]: 0 CELLS/uL
ABSOLUTE EOSINOPHIL [1]: 46 CELLS/uL
ABSOLUTE LYMPHOCYTE [1]: 10225.67 CELLS/uL
ABSOLUTE MONOCYTE [1]: 319.33 CELLS/uL
ABSOLUTE SEGMENTED NEUTROPHIL [1]: 1242.33 CELLS/uL
BASOPHIL [1]: 0%
EOSINOPHIL [1]: 0.33%
ERYTHROCYTE COUNT [1]: 5.17 x10E6/uL
HEMATOCRIT [1]: 33.43%
HEMOGLOBIN [1]: 12.55 G/DL
LEUKOCYTE COUNT [1]: 11.83 x10E3/uL
LYMPHOCYTE [1]: 86.5%
MEAN CORPUSCULAR HEMOGLOBIN [1]: 24.35 pg
MEAN CORPUSCULAR HEMOGLOBIN CONCENTRATION [1]: 37.57 G/DL
MEAN CORPUSCULAR VOLUME [1]: 64.8 fL
MONOCYTE [1]: 2.67%
NEUTROPHIL [1]: 10.5%
NUCLEATED RED BLOOD CELLS [1]: 0.17 /100WBC
PLATELET COUNT [1]: 1026.17 x10E3/uL
ALANINE AMINOTRANSFERASE [1]: 52.67 u/L
ALBUMIN [1]: 4.17 G/DL
ALKALINE PHOSPHATASE [1]: 331 u/L
ASPARTATE AMINOTRANSFERASE [1]: 92.33 u/L
BLOOD UREA NITROGEN [1]: 15.33 mg/dL
CARBON DIOXIDE [1]: 26.17 mmol/L
CHLORIDE [1]: 103.17 MEQ/L
CHOLESTEROL [1]: 73.67 mg/dL
CREATINE PHOSPHOKINASE [1]: 472.83 u/L
CREATININE [1]: 0.29 mg/dL
GLUCOSE [1]: 178.5 mg/dL
LACTATE DEHYDROGENASE [1]: 244.83 u/L
LIPASE [1]: 10.67 u/L
PHOSPHORUS [1]: 12.45 mg/dL
POTASSIUM [1]: 6.35 MEQ/L
SODIUM [1]: 144.27 MEQ/L
TOTAL BILIRUBIN [1]: 0.13 mg/dL
TOTAL PROTEIN [1]: 5.77 G/DL
URIC ACID [1]: 2.08 mg/dL
ABSOLUTE BASOPHIL [2]: 0 CELLS/uL
ABSOLUTE EOSINOPHIL [2]: 23.5 CELLS/uL
ABSOLUTE LYMPHOCYTE [2]: 12797.33 CELLS/uL
ABSOLUTE MONOCYTE [2]: 465.5 CELLS/uL
ABSOLUTE SEGMENTED NEUTROPHIL [2]: 1313.67 CELLS/uL
BASOPHIL [2]: 0%
EOSINOPHIL [2]: 0.17%
ERYTHROCYTE COUNT [2]: 5.76 x10E6/uL
HEMATOCRIT [2]: 36.72%
HEMOGLOBIN [2]: 13.72 G/DL
LEUKOCYTE COUNT [2]: 14.6 x10E3/uL
LYMPHOCYTE [2]: 87.5%
MEAN CORPUSCULAR HEMOGLOBIN [2]: 23.8 pg
MEAN CORPUSCULAR HEMOGLOBIN CONCENTRATION [2]: 37.35 G/DL
MEAN CORPUSCULAR VOLUME [2]: 63.72 fL
MONOCYTE [2]: 3.17%
NEUTROPHIL [2]: 9.17%
NUCLEATED RED BLOOD CELLS [2]: 0.33 /100WBC
PLATELET COUNT [2]: 1270.67 x10E3/uL
ALANINE AMINOTRANSFERASE [2]: 50.5 u/L
ALBUMIN [2]: 4.32 G/DL
ALKALINE PHOSPHATASE [2]: 339.67 u/L
ASPARTATE AMINOTRANSFERASE [2]: 88 u/L
BLOOD UREA NITROGEN [2]: 17 mg/dL
CARBON DIOXIDE [2]: 25 mmol/L
CHLORIDE [2]: 103.83 MEQ/L
CHOLESTEROL [2]: 71.33 mg/dL
CREATINE PHOSPHOKINASE [2]: 281.83 u/L
CREATININE [2]: 0.26 mg/dL
GLUCOSE [2]: 161.67 mg/dL
LACTATE DEHYDROGENASE [2]: 191.17 u/L
LIPASE [2]: 10.17 u/L
PHOSPHORUS [2]: 11.72 mg/dL
POTASSIUM [2]: 6.76 MEQ/L
SODIUM [2]: 145.17 MEQ/L
TOTAL BILIRUBIN [2]: 0.2 mg/dL
TOTAL PROTEIN [2]: 6.15 G/DL
URIC ACID [2]: 2 mg/dL
ABSOLUTE BASOPHIL [3]: 0 CELLS/uL
ABSOLUTE EOSINOPHIL [3]: 0 CELLS/uL
ABSOLUTE LYMPHOCYTE [3]: 10758.67 CELLS/uL
ABSOLUTE MONOCYTE [3]: 142 CELLS/uL
ABSOLUTE SEGMENTED NEUTROPHIL [3]: 1766 CELLS/uL
BASOPHIL [3]: 0%
EOSINOPHIL [3]: 0%
ERYTHROCYTE COUNT [3]: 5.69 x10E6/uL
HEMATOCRIT [3]: 36.1%
HEMOGLOBIN [3]: 13.63 G/DL
LEUKOCYTE COUNT [3]: 12.67 x10E3/uL
LYMPHOCYTE [3]: 85.33%
MEAN CORPUSCULAR HEMOGLOBIN [3]: 24.03 pg
MEAN CORPUSCULAR HEMOGLOBIN CONCENTRATION [3]: 37.8 G/DL
MEAN CORPUSCULAR VOLUME [3]: 63.63 fL
MONOCYTE [3]: 1%
NEUTROPHIL [3]: 13.67%
NUCLEATED RED BLOOD CELLS [3]: 0 /100WBC
PLATELET COUNT [3]: 1351.33 x10E3/uL
ALANINE AMINOTRANSFERASE [3]: 54 u/L
ALBUMIN [3]: 4.2 G/DL
ALKALINE PHOSPHATASE [3]: 332.33 u/L
ASPARTATE AMINOTRANSFERASE [3]: 92.67 u/L
BLOOD UREA NITROGEN [3]: 19.33 mg/dL
CARBON DIOXIDE [3]: 25.67 mmol/L
CHLORIDE [3]: 102.67 MEQ/L
CHOLESTEROL [3]: 84 mg/dL
CREATINE PHOSPHOKINASE [3]: 281.67 u/L
CREATININE [3]: 0.24 mg/dL
GLUCOSE [3]: 161.33 mg/dL
LACTATE DEHYDROGENASE [3]: 210.33 u/L
LIPASE [3]: 13 u/L
PHOSPHORUS [3]: 12.67 mg/dL
POTASSIUM [3]: 7.2 MEQ/L
SODIUM [3]: 145.7 MEQ/L
TOTAL BILIRUBIN [3]: 0.23 mg/dL
TOTAL PROTEIN [3]: 6.07 G/DL
URIC ACID [3]: 2.93 mg/dL
ABSOLUTE BASOPHIL [4]: 0 CELLS/uL
ABSOLUTE EOSINOPHIL [4]: 0 CELLS/uL
ABSOLUTE LYMPHOCYTE [4]: 9543.67 CELLS/uL
ABSOLUTE MONOCYTE [4]: 215.33 CELLS/uL
ABSOLUTE SEGMENTED NEUTROPHIL [4]: 1341 CELLS/uL
BASOPHIL [4]: 0%
EOSINOPHIL [4]: 0%
ERYTHROCYTE COUNT [4]: 5.03 x10E6/uL
HEMATOCRIT [4]: 32.97%
HEMOGLOBIN [4]: 12.67 G/DL
LEUKOCYTE COUNT [4]: 11.1 x10E3/uL
LYMPHOCYTE [4]: 86%
MEAN CORPUSCULAR HEMOGLOBIN [4]: 25.17 pg
MEAN CORPUSCULAR HEMOGLOBIN CONCENTRATION [4]: 38.47 G/DL
MEAN CORPUSCULAR VOLUME [4]: 65.47 fL
MONOCYTE [4]: 1.67%
NEUTROPHIL [4]: 12.33%
NUCLEATED RED BLOOD CELLS [4]: 0 /100WBC
PLATELET COUNT [4]: 979.33 x10E3/uL
ALANINE AMINOTRANSFERASE [4]: 56.67 u/L
ALBUMIN [4]: 4.1 G/DL
ALKALINE PHOSPHATASE [4]: 363.67 u/L
ASPARTATE AMINOTRANSFERASE [4]: 90 u/L
BLOOD UREA NITROGEN [4]: 17 mg/dL
CARBON DIOXIDE [4]: 24.33 mmol/L
CHLORIDE [4]: 103.33 MEQ/L
CHOLESTEROL [4]: 67 mg/dL
CREATINE PHOSPHOKINASE [4]: 265.33 u/L
CREATININE [4]: 0.56 mg/dL
GLUCOSE [4]: 159 mg/dL
LACTATE DEHYDROGENASE [4]: 154.33 u/L
LIPASE [4]: 13.33 u/L
PHOSPHORUS [4]: 11.83 mg/dL
POTASSIUM [4]: 6.26 MEQ/L
SODIUM [4]: 145.33 MEQ/L
TOTAL BILIRUBIN [4]: 0.17 mg/dL
TOTAL PROTEIN [4]: 5.8 G/DL
URIC ACID [4]: 1.6 mg/dL
